# Data published in publication PMC11550483 (2024).
# Where a SMILES comes first, the peptide text is derived from it.
# Target: SARS2 M^pro (Severe acute respiratory syndrome coronavirus 2, UniProt P0DTD1, P3395H)
# Format: biochemical, SARS-CoV-2
row,Compound,% inhibition (20 µM) biochemical
1,"CCOC(=O)c1c(NC(=O)CCl)sc2c1CC(C)(C)NC2(C)C [MWAC-0001854, CCOC(=O)c1c(NC(=O)CCl)sc2c1CC(C)(C)NC2(C)C]",98%
2,"O=C1N(Cc2ccccc2)c2ccccc2C12NNc1ccccc1O2 (centres unmarked) [MWAC-0001855, O=C1N(Cc2ccccc2)c3ccccc3C14NNc5ccccc5O4]",2.76%
3,"CCCCS(=O)(=O)N(O)c1ccc(Cl)cc1 [MWAC-0001856, CCCCS(=O)(=O)N(O)c1ccc(Cl)cc1]",4%
4,"CC(NC(=O)CCl)C1COc2ccccc2O1 (centres unmarked) [MWAC-0001857, CC(NC(=O)CCl)C1COc2ccccc2O1]",26%
5,"Cc1cc(CNC(=O)CCl)cc(C)c1O [MWAC-0001858, Cc1cc(CNC(=O)CCl)cc(C)c1O]",45%
6,"Cc1ccc(C(NC(=O)CCl)c2cccs2)cc1 (centres unmarked) [MWAC-0001859, Cc1ccc(cc1)C(NC(=O)CCl)c2cccs2]",60%
7,"COc1ccc2c(=O)cc(-c3ccc4c(c3)OCCO4)oc2c1 [MWAC-0001860, COc1ccc2C(=O)C=C(Oc2c1)c3ccc4OCCOc4c3]",100%
8,"O=C(CCl)NC(c1ccccc1)c1ccc(Cl)cc1 (centres unmarked) [MWAC-0001861, ClCC(=O)NC(c1ccccc1)c2ccc(Cl)cc2]",67%
9,"O=C(CCl)NC(NC(=O)CCl)c1ccccc1F [MWAC-0001862, Fc1ccccc1C(NC(=O)CCl)NC(=O)CCl]",40%
10,"O=C(CCl)NCCOc1ccccc1 [MWAC-0001864, ClCC(=O)NCCOc1ccccc1]",58%
11,"COc1cccc(Nc2ccc3ccccc3c2)c1 [MWAC-0001865, COc1cccc(Nc2ccc3ccccc3c2)c1]",0%
12,"O=C(CC(SCc1ccco1)c1ccc(Cl)cc1)c1cccs1 (centres unmarked) [MWAC-0001874, Clc1ccc(cc1)C(CC(=O)c2cccs2)SCc3occc3]",0%
13,"Nc1c(C(=O)c2ccccc2)sc2nc(C3CC3)cc(-c3ccco3)c12 [MWAC-0001875, Nc1c(sc2nc(cc(c3occc3)c12)C4CC4)C(=O)c5ccccc5]",0%
14,"O=C(Nc1nccs1)c1ccc(F)cc1[N+](=O)[O-] [MWAC-0001876, [O-][N+](=O)c1cc(F)ccc1C(=O)Nc2nccs2]",0%
15,"COc1ccc(-c2cc(=O)c3ccccc3s2)cc1 [MWAC-0001878, COc1ccc(cc1)C2=CC(=O)c3ccccc3S2]",0%
16,"S=C(c1ccc(-c2cccc(Cl)c2)o1)N1CCCCC1 [MWAC-0001879, Clc1cccc(c1)c2oc(cc2)C(=S)N3CCCCC3]",0%
17,"CCc1ccc(C(=O)Cn2c(C)nc([N+](=O)[O-])c2Br)cc1 [MWAC-0001880, CCc1ccc(cc1)C(=O)Cn2c(C)nc(c2Br)[N+](=O)[O-]]",0%
18,"COc1ccc(-c2nnc(SCc3ccc4c(c3)OCO4)n2-c2ccccc2)cc1 [MWAC-0001881, COc1ccc(cc1)c2nnc(SCc3ccc4OCOc4c3)n2c5ccccc5]",0%
19,"Cc1ccc(Cc2cnc(NC(=O)c3cccs3)s2)cc1 [MWAC-0001882, Cc1ccc(Cc2cnc(NC(=O)c3cccs3)s2)cc1]",0%
20,"CSc1cccc(NC(=O)c2cnn3ccccc23)c1 [MWAC-0001883, CSc1cccc(NC(=O)c2cnn3ccccc23)c1]",0%
21,"COC(=O)c1ccc(C(=O)Nc2ccccc2N)cc1 [MWAC-0001884, COC(=O)c1ccc(cc1)C(=O)Nc2ccccc2N]",0%
22,"COc1ccccc1Nc1nc(-c2ccccn2)cs1 [MWAC-0001885, COc1ccccc1Nc2nc(cs2)c3ccccn3]",0%
23,"Cc1noc(N)c1C(=O)Nc1ccc(C(C)(C)C)cc1 [MWAC-0001886, Cc1noc(N)c1C(=O)Nc2ccc(cc2)C(C)(C)C]",0%
24,"CCC(=O)OCC(=O)NCc1ccc2c(c1)OCO2 [MWAC-0001887, CCC(=O)OCC(=O)NCc1ccc2OCOc2c1]",0%
25,"CC(C)c1cc(NC(=O)CCl)cc(C(C)C)c1O [MWAC-0001888, CC(C)c1cc(NC(=O)CCl)cc(C(C)C)c1O]",80%
26,"CSCCC(C=O)NC(=O)C(CC(C)C)NC(=O)C(CC(C)C)NC(C)=O (stereo not drawn) [MWAC-0001889, CSCCC(NC(=O)C(CC(C)C)NC(=O)C(CC(C)C)NC(=O)C)C=O] (Ac-Leu-Leu-Met-aldehyde; configuration not given here)",99%
